Experimental data published in US20080014253A1, “Lipid-Based Drug Delivery Systems Containing Unnatural Phospholipase A2 Degradable Lipid Derivatives and the Therapeutic Uses Thereof” (priority 2004, published 2008).

Molecular target: T1, PLA2 (A. piscivorus piscivorus) (Agkistrodon piscivorus piscivorus, UniProt P51972)
T1 sequence (P51972 1-123): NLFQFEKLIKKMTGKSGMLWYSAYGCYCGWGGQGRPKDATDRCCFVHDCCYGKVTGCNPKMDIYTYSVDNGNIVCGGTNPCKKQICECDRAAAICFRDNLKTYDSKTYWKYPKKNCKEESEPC
Assay: PLA2 hydrolysis of unilamellar liposomes (lag time, degree of lipid hydrolysis by HPLC)
Format: biochemical
Details: for degree of PLA2 lipid hydrolysis: 1000 s after the unset of the burst, HPLC, broad temperature range
Experimental: FIG. 4. Characteristic reaction time profiles at 40° C. for PLA2 hydrolysis of unilamellar. (A) 0.15 mM 1-O-DPPC′ liposomes incubated with 150 nM PLA2 (A. piscivorus piscivorus). (B) 0.15 mM 1-O-DPPG′ liposomes incubated with human secretory PLA2 from 20 μL freshly prepared human tear fluid (B). The PLA2 hydrolysis reaction is monitored by intrinsic fluorescence (solid line) from the enzyme and 90° static light scattering (dashed lines) from the lipid suspension. After adding PLA2 to the equilibrated liposome suspension a characteristic lag time, τ, follows before a sudden increase in the catalytic activity takes place (A).
FIG. 5. PLA2 (A. piscivorus piscivorus) lag time, τ, as a function of temperature for the hydrolysis of 1-O-DPPC′ unilamellar liposomes incorporated with 0 mol % (▪), 2 mol % (▴), and 10 mol % (∘) 1-O-DPPG′ lipids, and 5 mol % (V) DSPE-PEG2000 polymer lipids. The concentration of the liposomes was 0.15 mM and the concentration of PLA2 was 150 nM.
FIG. 6. (A) PLA2 (A. piscivorus piscivorus) hydrolysis of 1-O-DPPC′ liposomes containing 0 mol % (▪), 2 mol % (▴), and 10 mol % (∘) 1-O-DPPG′ lipids, and 5 mol % (▾) DSPE-PEG2000 polymer lipids determined by HPLC [28]. The percent lipid hydrolysis is determined 1000 s after the unset of the burst. The concentration of the liposomes was 0.15 mM and the concentration of PLA2 was 150 nM. (B) Hydrolysis of 1-O-DPPG′ unilamellar liposomes determined by HPLC [28]. The PLA2 catalyzed lipid hydrolysis is determined as a function of time after addition of 20 μL freshly prepared human tear fluid to 0.15 mM 1-O-DPPG′ liposomes.
By replacing the ester linkage in the C-1 position with an ether bond, these unnatural phospholipids can furthermore be used as novel prodrug anticancer lipids to make liposomal microcarriers that can be degraded to active anticancer lysoetherlipids by PLA2 [27]. […] The PLA2 lag time measurements on 1-O-DPPC′ unilamellar liposomes incorporated with small amounts of 1-O-DPPG′ or DSPE-PEG2000 lipids were performed in the gel-to-fluid main phase transition range and the degree of lipid hydrolysis was analyzed using HPLC techniques.
Typical PLA2 (A. piscivorus piscivorus) hydrolysis time course profiles obtained at 40° C. are shown in FIG. 4 for 1-O-DPPC′ and 1-O-DPPG′ unilamellar liposomes. […] The rapid increase in PLA2 activity is reflected by a sharp rise in the intrinsic PLA2 tryptophan fluorescence intensity followed by a concomitant decrease in the 90° static light scattering caused by a change in the morphology of the lipid system when a large amount of the phospholipids are converted to non-bilayer forming lysolipids and free fatty acids. […] Both the fluorescence and light scattering data clearly indicate that the unnatural phospholipids are excellent substrates for PLA2 catalyzed hydrolysis. […]

| Compound | degree of PLA2 lipid hydrolysis | PLA2 lag time, τ (0.15 mM unilamellar liposomes, 150 nM PLA2, 40° C.) | PLA2 lag time (1-O-DPPC′ liposomes incorporated with 5 mol % DPPE-PEG2000 lipopolymers) |
| --- | --- | --- | --- |
| (S)-1-O-hexadecyl-3-hexadecanoyl-glycero-2-phosphoglycerol [1-O-DPPG′] | remarkably high degree of lipid hydrolysis |  |  |
| CCCCCCCCCCCCCCCCOC[C@@H](COC(=O)CCCCCCCCCCCCCCC)OP(=O)([O-])OCC[N+](C)(C)C [1-O-DPPC′, (S)-1-O-hexadecyl-3-hexadecanoyl-glycero-2-phosphocholine] | remarkably high degree of lipid hydrolysis | observed | very short lag time |
